The record followed here is patent US11104661B1, “Inhibiting human integrin (α-4) (β-7)” (Morphic Therapeutic, Inc., priority 2019, dated 2021).

The structures appear in SMILES notation.

Assay [1] concerns the target T1, α4β7 (Homo sapiens, UniProt P13612+P26010).
T1 construct: endogenous in cells; host or cells: RPMI 8866 cells
T1 sequence (P13612 34-1032): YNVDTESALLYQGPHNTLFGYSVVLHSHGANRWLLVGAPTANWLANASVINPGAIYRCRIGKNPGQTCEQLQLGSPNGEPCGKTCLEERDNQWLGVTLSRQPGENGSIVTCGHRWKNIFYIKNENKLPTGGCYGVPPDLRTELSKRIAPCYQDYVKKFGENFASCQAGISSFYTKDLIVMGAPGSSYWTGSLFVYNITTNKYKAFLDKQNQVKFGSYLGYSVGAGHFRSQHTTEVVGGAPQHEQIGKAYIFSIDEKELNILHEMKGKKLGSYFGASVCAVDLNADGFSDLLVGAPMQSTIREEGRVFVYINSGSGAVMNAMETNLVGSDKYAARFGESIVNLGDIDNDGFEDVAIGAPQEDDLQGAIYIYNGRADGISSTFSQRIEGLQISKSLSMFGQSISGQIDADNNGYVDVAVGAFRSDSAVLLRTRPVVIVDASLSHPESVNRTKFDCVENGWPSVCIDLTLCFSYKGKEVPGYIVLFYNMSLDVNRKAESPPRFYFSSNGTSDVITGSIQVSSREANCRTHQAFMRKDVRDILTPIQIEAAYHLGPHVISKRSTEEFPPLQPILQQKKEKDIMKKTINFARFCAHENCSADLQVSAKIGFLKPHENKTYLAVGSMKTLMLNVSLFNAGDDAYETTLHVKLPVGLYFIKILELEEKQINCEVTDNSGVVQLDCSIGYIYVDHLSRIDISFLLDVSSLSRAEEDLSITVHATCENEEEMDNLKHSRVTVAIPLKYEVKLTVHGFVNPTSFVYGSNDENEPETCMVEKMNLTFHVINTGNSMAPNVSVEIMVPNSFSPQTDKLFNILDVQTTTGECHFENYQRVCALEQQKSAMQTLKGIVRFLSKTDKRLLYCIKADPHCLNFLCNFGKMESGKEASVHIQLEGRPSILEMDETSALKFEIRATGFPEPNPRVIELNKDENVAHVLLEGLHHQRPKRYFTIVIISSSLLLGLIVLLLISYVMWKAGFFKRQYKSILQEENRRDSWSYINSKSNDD
T1 sequence (P26010 20-798): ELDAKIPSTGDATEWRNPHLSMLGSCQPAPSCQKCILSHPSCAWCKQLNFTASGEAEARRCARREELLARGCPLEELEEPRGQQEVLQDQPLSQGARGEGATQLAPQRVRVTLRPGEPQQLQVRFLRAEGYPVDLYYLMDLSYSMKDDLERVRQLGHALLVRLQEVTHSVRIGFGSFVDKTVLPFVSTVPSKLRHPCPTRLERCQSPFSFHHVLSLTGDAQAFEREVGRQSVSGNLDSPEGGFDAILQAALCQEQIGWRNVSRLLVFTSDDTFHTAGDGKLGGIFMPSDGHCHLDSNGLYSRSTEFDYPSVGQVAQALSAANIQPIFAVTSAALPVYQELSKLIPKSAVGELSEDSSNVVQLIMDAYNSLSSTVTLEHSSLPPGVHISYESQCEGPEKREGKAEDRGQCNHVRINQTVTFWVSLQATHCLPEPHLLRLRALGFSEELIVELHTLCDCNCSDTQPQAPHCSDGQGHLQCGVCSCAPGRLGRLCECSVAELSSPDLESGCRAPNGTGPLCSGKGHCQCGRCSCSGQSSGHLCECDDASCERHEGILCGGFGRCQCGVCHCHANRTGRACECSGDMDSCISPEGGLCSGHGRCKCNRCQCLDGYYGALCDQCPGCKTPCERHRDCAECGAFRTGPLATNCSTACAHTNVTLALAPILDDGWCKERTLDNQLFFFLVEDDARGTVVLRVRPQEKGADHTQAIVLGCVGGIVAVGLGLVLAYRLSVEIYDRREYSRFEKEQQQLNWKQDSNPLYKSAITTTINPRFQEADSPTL
Put plainly: Cell adhesion assay, RPMI8866 cells on MAdCAM coated plates (Example 7). The format is cell-based. Conditions: RPMI8866 cells adhering to recombinant human MAdCAM, read-out: CA Assay (Example 7). Here is the method:
(§1) Three in vitro assays were used to examine the α4β7 mechanistic process used by cells: 1) ligand:receptor affinity, 2) the avidity of those interactions on a cell's surface, and 3) how those interactions fare under an imposing force. In Example 5, a Fluorescence Polarization (FP) assay is used to measure compound activity through binding competition with the fluorescein-labeled peptide. In Example 6, the potency of compounds against α4β7 is measured in the cell-based ligand binding assay (LBA), using RPMI 8866 cells incubated with the compound samples in competition with soluble MAdCAM-1 ligand. In Example 7, activity of compounds is evaluated in a cell adhesion assay that mechanistically tests what occurs in vivo when trafficking cells utilize α4β7 to adhere to MAdCAM-1 expressing HEVs of the gut during the extravasation process. In the cell adhesion assay of Example 7, a MAdCAMI1-(Fc) is coated on plastic, and α4β7 expressing cells (RPMI-8866) are allowed to adhere to the coated surface in the presence of the test compounds. Next, the force of washing with buffer is applied to cells thereby testing the strength of that adhesion. Unattached cells are removed and the remaining adherent cells are quantified.
Example 7 describes a cell adhesion assay.
To each well of a 96 well plate, 100 ug of recombinant human MAdCAM in 100 ul PBS is added and incubated overnight at 4° C. After incubation MAdCAM is removed by aspiration and 200 ul of PBS+1% BSA is added to block the plate for 2 hours at 37° C. and 5% CO2. During this incubation dilution curves of compound are made in 100% DMSO in 96 well V bottom plates. 1.75 ul of diluted compounds are then transferred to a new 96 well U bottom plate containing 20 ul of assay media (phosphate free DMEM+25 mM HEPES+1% BSA). To this an additional 155 ul of assay media is added with mixing by pipetting up and down. This mixture is allowed to incubate for 15 minutes at 37° C. and 5% CO2. After incubation 175 ul of assay media containing 2e6/mL RPMI8866 cells is added to compound containing wells without mixing and plate is allowed to incubate for another 15 minutes at 37° C. and 5% CO2. During this incubation MAdCAM coated plates are removed from incubator and washed twice with 200 ul PBS+0.1% BSA. […] This plate is then incubated at 37° C. and 5% CO2 for 1 hour. After incubation plates are washed twice with 200 ul and once with 50 ul of phenol free RPMI+1% BSA. A final 50 ul of phenol free RPMI+1% BSA is added to wells after last wash. Next 50 ul of Promega cell titer glow is added to the wells. Plate is incubated on shaker for 2 minutes at 200 RPM followed by another 8 minutes off shaker before having the luminescence read on a Biotek Citation 5 plate reader. Raw data is converted to % inhibition compared to bottom of curve and analyzed using a 4-parameter non linear curve in Prism to determine IC50 and IC90.

Assay [2] concerns the target T1, α4β7. Put plainly: Cell-based MAdCAM-1 ligand binding assay (LBA) on RPMI 8866 cells (Example 6). Conditions: MAdCAM-1-Fc Dylight 650, 3 mM manganese chloride, flow cytometry, Table 4 comparative compounds, read-out: LB Assay (Example 6).
Text: Compounds of Formula (I) were further evaluated using a Ligand binding assay (LBA) to examine compound potency of free ligand binding to receptors expressed on cells. The MAdCAM ligand binding assay uses flow cytometry to measure the binding of fluorescently-labeled MAdCAM-1-Fc to RPMI 8866 cells in the presence of Mn++. This assay assesses the binding of compounds to native full-length receptors on the cell surface. […] Ligand binding assays (LBA) are used to examine compound potency and selectivity of free ligand binding to receptors expressed on cells.
as §1
5 ul of 33 nM MAdCAM-1-Fc fluorescently labeled with Dylight 650 in 50 mM HEPES pH 7.3, 150 mM sodium chloride, and 1% bovine serum albumin was added to the cells. The samples were incubated for 45 minutes at room temperature, fixed with 0.8% formaldehyde for 30 minutes at room temperature, and washed with 50 mM Tris pH 7.5, 150 mM NaCl, 1 mM EDTA, and 1% bovine serum albumin. Fluorescence intensity for each cell was measured via flow cytometry. Dead cells were excluded from further analysis based on staining with the 780 fixable viability dye. Median fluorescence intensity for Dylight 650 was determined for each sample and concentration-response curves were analyzed for IC50 values using 4-parameter non-linear regression analysis.

The target in assay [3] is T2, integrin α4β7 (Homo sapiens, UniProt P13612+P26010).
T2 sequence (P13612 35-977 limits assumed): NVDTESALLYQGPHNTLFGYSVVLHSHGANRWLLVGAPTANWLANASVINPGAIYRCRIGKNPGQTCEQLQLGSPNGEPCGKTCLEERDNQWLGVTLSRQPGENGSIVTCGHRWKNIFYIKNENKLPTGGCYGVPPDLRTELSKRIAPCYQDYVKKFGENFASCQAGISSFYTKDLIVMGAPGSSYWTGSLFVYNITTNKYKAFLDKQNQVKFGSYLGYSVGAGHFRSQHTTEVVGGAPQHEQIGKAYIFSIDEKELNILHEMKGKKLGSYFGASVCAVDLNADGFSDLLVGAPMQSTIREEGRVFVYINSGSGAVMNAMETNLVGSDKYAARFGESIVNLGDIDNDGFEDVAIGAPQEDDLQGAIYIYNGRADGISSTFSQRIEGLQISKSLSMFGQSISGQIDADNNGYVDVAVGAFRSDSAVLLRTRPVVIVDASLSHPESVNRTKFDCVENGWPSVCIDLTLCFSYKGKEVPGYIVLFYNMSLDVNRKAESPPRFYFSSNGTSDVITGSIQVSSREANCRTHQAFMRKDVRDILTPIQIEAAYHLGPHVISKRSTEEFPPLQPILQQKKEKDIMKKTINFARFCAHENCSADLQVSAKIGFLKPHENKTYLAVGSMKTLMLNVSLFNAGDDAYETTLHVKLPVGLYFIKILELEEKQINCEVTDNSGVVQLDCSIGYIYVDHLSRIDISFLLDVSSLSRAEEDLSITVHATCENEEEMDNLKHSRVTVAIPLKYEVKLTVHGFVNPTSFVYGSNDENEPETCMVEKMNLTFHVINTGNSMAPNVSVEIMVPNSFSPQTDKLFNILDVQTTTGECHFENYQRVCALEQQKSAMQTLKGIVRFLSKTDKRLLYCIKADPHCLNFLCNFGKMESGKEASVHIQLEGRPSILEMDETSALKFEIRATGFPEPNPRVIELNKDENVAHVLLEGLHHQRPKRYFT
T2 sequence (P26010 20-723 limits assumed): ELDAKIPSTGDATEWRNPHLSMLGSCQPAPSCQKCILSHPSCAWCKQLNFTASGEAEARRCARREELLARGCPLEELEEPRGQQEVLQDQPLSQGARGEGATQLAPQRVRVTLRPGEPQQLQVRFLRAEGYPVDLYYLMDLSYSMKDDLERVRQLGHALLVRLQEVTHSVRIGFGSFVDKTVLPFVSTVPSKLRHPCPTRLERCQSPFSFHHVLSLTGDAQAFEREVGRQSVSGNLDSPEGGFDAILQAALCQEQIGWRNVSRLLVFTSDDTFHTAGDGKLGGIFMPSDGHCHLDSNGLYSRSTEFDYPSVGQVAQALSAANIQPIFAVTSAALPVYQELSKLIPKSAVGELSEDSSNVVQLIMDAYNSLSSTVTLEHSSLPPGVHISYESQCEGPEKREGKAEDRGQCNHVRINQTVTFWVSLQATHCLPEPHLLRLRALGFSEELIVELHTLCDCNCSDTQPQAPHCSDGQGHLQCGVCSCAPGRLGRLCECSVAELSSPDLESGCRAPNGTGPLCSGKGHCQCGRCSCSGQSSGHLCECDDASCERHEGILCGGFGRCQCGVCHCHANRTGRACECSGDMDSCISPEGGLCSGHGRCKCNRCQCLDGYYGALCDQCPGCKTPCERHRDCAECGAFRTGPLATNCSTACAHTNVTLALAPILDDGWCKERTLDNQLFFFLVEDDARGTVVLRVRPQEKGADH
Description: Fluorescence polarization (FP) assay for α4β7 binding (Example 5). To be noted: competition with fluorescein-labeled peptide, 6.5 nM integrin α4β7, 2 mM manganese chloride; Table 4 comparative compounds. Here is the method:
Compounds of Formula (I) were evaluated using a fluorescent polarization (FP) assay. FP assays are used to evaluate potency of compounds on purified protein. The FP assays consists of measuring purified integrin αβ heterodimer ecto domains or headpiece binding to surrogate or truncated ligands.
as §1
Fluorescence Polarization (FP) assays were used to measure compound activity through binding competition with the fluorescein-labeled peptide […]{Lys(FITC)}. In the assay, 6.5 nM of integrin α4β7 was incubated with the test compound in 2 mM manganese chloride, 0.1 mM calcium chloride, 20 mM HEPES buffer at pH 7.3, 150 mM sodium chloride, 0.01% Triton X-100, 2% DMSO, and 3 nM of the fluorescein-labeled peptide. Running the assays in 384-well plates, the integrin protein was pre-incubated with the test compounds for 15 minutes at 22° C. before the fluorescein-labeled peptide was added. After the fluorescein-labeled peptide was added, the assay was incubated at 22° C. for 1 hour and fluorescence polarization was measured. IC50 values were determined by nonlinear regression, four-parameter curve fitting.
Background: Fluorescence polarisation rises when a labelled molecule tumbles more slowly, as on binding a larger partner.

As for `Cc1ccccc1-c1cc([C@H](CC(=O)O)NC(=O)[C@H](CC(C)C)n2ccc(C(F)(F)F)cc2=O)cnc1C`, the IC50 was over 100 nM in assay [1] (Table 4 comparative compounds) and 10 to 500 nM in assay [2]. Compound `Cc1cccc(C)c1-c1cncc([C@H](CC(=O)O)NC(=O)[C@@H](CC(C)C)n2ccccc2=O)c1` came in with an IC50 in assay [3] of 10 to 500 nM.

As for `Cc1cccc(C)c1-c1cncc([C@@H](CC(=O)O)NC(=O)[C@H](CC(C)C)n2ccccc2=O)c1`, the IC50 in assay [3] is over 500 nM. In assay [3], `Cc1cccc(C)c1-c1cncc([C@@H](CC(=O)O)NC(=O)[C@@H](CC(C)C)n2ccccc2=O)c1` had an IC50 of over 500 nM. For `COC1CN(CCc2cn([C@H](CC(C)C)C(=O)N[C@@H](CC(=O)O)c3cc(-c4c(C)cccc4C)cc(Cl)c3F)c(=O)cc2C(F)(F)F)C1` [W-P2, (3S)-3-(5-chloro-4-fluoro-2′,6′-dimethyl-[1,1′-biphenyl]-3-yl)-3-(2-(5-(2-(3-methoxyazetidin-1-yl)ethyl)-2-oxo-4-(trifluoromethyl)pyridin-1(2H)-yl)-4-methylpentanamido)propanoic acid], in assay [1] (Table 3), the IC50 is under 5 nM.
